The data set in a line: in vitro. As to conditions: human, hek293t cells.
The term viability denotes a read-out of living cells in per cent, often relative to untreated cells. Consider `CCCn1c(C)cc(C=C(C#N)C(=O)Nc2ccccc2)c1C` [8-H05, 2-cyano-3-(2,5-dimethyl-1-propyl-1H-pyrrol-3-yl)-N-phenylprop-2-enamide], for which the viability at 48 h, 25 µM was 108%.
Take `N#CC(=Cc1c[nH]nc1-c1ccccc1F)C(=O)Nc1ccccc1F` [8-H06, 2-cyano-N-(2-fluorophenyl)-3-[3-(2-fluorophenyl)-1H-pyrazol-4-yl]prop-2-enamide]: the viability at 48 h, 25 µM is 90.8%.
The figure for `COc1cc(C=C(C#N)C(=O)Nc2ccc(F)cc2)cc(Cl)c1O` [8-H07, 3-(3-chloro-4-hydroxy-5-methoxyphenyl)-2-cyano-N-(4-fluorophenyl)prop-2-enamide] is 87.7%.
In the case of `COc1ccccc1NC(=O)C(C#N)=Cc1ccco1` [8-H08, 2-cyano-3-(furan-2-yl)-N-(2-methoxyphenyl)prop-2-enamide], the viability at 48 h, 25 µM came out at 93%.
The figure for `Cc1ccccc1NC(=O)C(C#N)=Cc1cccc2ccccc12` [8-H09, 2-cyano-N-(2-methylphenyl)-3-(naphthalen-1-yl)prop-2-enamide] is 88.4%; for `N#CC(C(=O)Nc1ccccc1)=C1NCCCN1` [8-H10, 2-cyano-2-(1,3-diazinan-2-ylidene)-N-phenylacetamide] it is 97.7%.
With `Cc1ccc(NC(=O)C(C#N)=Cc2cccc(C(F)(F)F)c2)c(C)c1` [8-H11, 2-cyano-N-(2,4-dimethylphenyl)-3-[3-(trifluoromethyl)phenyl]prop-2-enamide], the viability at 48 h, 25 µM came out at 75%.
For the compound `Cc1ccc(C=C(C#N)C(=O)NCCc2ccccc2)o1` [8-H12, 2-cyano-3-(5-methylfuran-2-yl)-N-(2-phenylethyl)prop-2-enamide], the viability at 48 h, 25 µM was 118%.
The figure for `COc1ccc(C=C(C#N)C(=O)NC2CCCCC2)cc1O` [8-H13, 2-cyano-N-cyclohexyl-3-(3-hydroxy-4-methoxyphenyl)prop-2-enamide] is 86.5%.
As to `CCCCNC(=O)C(C#N)=Cc1ccc(F)cc1F` [8-H14, N-butyl-2-cyano-3-(2,4-difluorophenyl)prop-2-enamide], the viability at 48 h, 25 µM was 103%.
Next, `CC(C)NC(=O)C(C#N)=Cc1cccs1` [8-H15, 2-cyano-N-(propan-2-yl)-3-(thiophen-2-yl)prop-2-enamide]: 117%; `N#CC(=Cc1cn(-c2ccccc2)nc1-c1ccc(Cl)cc1)C(N)=O` [8-H16, 3-[3-(4-chlorophenyl)-1-phenyl-1H-pyrazol-4-yl]-2-cyanoprop-2-enamide]: 125%; `N#CC(=Cc1ccc(Cl)cc1Cl)C(N)=O` [8-H17, 2-cyano-3-(2,4-dichlorophenyl)prop-2-enamide]: 93.6%.
On to `N#CC(=Cc1ccccc1OC(F)F)C(=O)NC1CCCCC1` [8-H18, 2-cyano-N-cyclohexyl-3-[2-(difluoromethoxy)phenyl]prop-2-enamide], for which the viability at 48 h, 25 µM was 20.8%.
For `COc1ccc(C=C(C#N)C(=O)Nc2ccc3c(c2)OCCO3)cc1O` [8-H19, 2-cyano-N-(2,3-dihydro-1,4-benzodioxin-6-yl)-3-(3-hydroxy-4-methoxyphenyl)prop-2-enamide], the viability at 48 h, 25 µM was 99.8%.
The figure for `CN1C=C(C(F)(F)F)C=CC1=C(C#N)C(=O)Nc1ccccc1F` [8-H20, 2-cyano-N-(2-fluorophenyl)-2-[1-methyl-5-(trifluoromethyl)-1,2-dihydropyridin-2-ylidene]acetamide] is 90.1%; for `COc1cc(C=C(C#N)C(=O)NC2CCCCC2)cc(Cl)c1O` [8-H21, 3-(3-chloro-4-hydroxy-5-methoxyphenyl)-2-cyano-N-cyclohexylprop-2-enamide] it is 92.7%; for `N#CC(C(=O)Nc1ccc(Cl)cc1)=C(S)Nc1ccccc1` [8-H22, N-(4-chlorophenyl)-2-cyano-3-(phenylamino)-3-sulfanylprop-2-enamide] it is 78.8%.
For the compound `COc1ccc(C=C(C#N)C(=O)Nc2cccc([N+](=O)[O-])c2)cc1` [8-I03, 2-cyano-3-(4-methoxyphenyl)-N-(3-nitrophenyl)prop-2-enamide], the viability at 48 h, 25 µM stood at 105%.
Regarding `COc1ccc(NC(=O)C(C#N)=Cc2c(C)n[nH]c2C)cc1` [8-I04, 2-cyano-3-(3,5-dimethyl-1H-pyrazol-4-yl)-N-(4-methoxyphenyl)prop-2-enamide], the viability at 48 h, 25 µM stood at 84.7%.
As to `COc1ccc(C=C(C#N)C(=O)Nc2ccc(C)c(C)c2)cc1` [8-I05, 2-cyano-N-(3,4-dimethylphenyl)-3-(4-methoxyphenyl)prop-2-enamide], the viability at 48 h, 25 µM turned out to be 87.4%.
Turning to `CC1CCCCC1NC(=O)C(C#N)=Cc1ccc(N2CCOCC2)cc1` (stereo not drawn) [8-I06, 2-cyano-N-(2-methylcyclohexyl)-3-[4-(morpholin-4-yl)phenyl]prop-2-enamide], the viability at 48 h, 25 µM is 52.8%.
Consider `Cc1cccc(C)c1NC(=O)C(C#N)=Cc1ccsc1` [8-I07, 2-cyano-N-(2,6-dimethylphenyl)-3-(thiophen-3-yl)prop-2-enamide], for which the viability at 48 h, 25 µM was found to be 85.3%.
On to `CC(C)NC(=O)C(C#N)=Cc1cnn(-c2ccc(Cl)cc2)c1` [8-I08, 3-[1-(4-chlorophenyl)-1H-pyrazol-4-yl]-2-cyano-N-(propan-2-yl)prop-2-enamide], for which the viability at 48 h, 25 µM came to 77.6%.
Consider `COc1ccc(C=C(C#N)C(=O)Nc2cccc(Cl)c2)cc1` [8-I09, N-(3-chlorophenyl)-2-cyano-3-(4-methoxyphenyl)prop-2-enamide], for which the viability at 48 h, 25 µM came to 80%.
`N#CC(=Cc1cc(F)ccc1F)C(=O)Nc1ccc2c(c1)OCCO2` [8-I10, 2-cyano-3-(2,5-difluorophenyl)-N-(2,3-dihydro-1,4-benzodioxin-6-yl)prop-2-enamide]: the viability at 48 h, 25 µM amounted to 53.5%.
For `CSc1ccc(C=C(C#N)C(=O)N2CCCC2)cc1` [8-I11, 3-[4-(methylsulfanyl)phenyl]-2-(pyrrolidine-1-carbonyl)prop-2-enenitrile], the viability at 48 h, 25 µM came to 106%.
In the case of `N#CC(=Cc1cc(F)ccc1F)C(=O)NC1CCCC1` [8-I12, 2-cyano-N-cyclopentyl-3-(2,5-difluorophenyl)prop-2-enamide], the viability at 48 h, 25 µM turned out to be 16.8%.
Take `Cc1cc(C)c(NC(=O)C(C#N)=Cc2ccc(C(C)(C)C)cc2)c(C)c1` [8-I13, 3-(4-tert-butylphenyl)-2-cyano-N-(2,4,6-trimethylphenyl)prop-2-enamide]: the viability at 48 h, 25 µM is 9.25%.
As for `N#CC(=Cc1cccc(O)c1)C(=O)Nc1ccc(N2CCOCC2)cc1` [8-I14, 2-cyano-3-(3-hydroxyphenyl)-N-[4-(morpholin-4-yl)phenyl]prop-2-enamide], the viability at 48 h, 25 µM was 82.5%.
Turning to `N#CC(=Cc1ccsc1)C(=O)NCc1ccc(Cl)cc1` [8-I15, N-[(4-chlorophenyl)methyl]-2-cyano-3-(thiophen-3-yl)prop-2-enamide], the viability at 48 h, 25 µM was found to be 101%.
Next, `Cc1cccc(NC(=O)C(C#N)=Cc2ccc(F)c(F)c2)c1` [8-I16, 2-cyano-3-(3,4-difluorophenyl)-N-(3-methylphenyl)prop-2-enamide]: 75.5%; `N#CC(=Cc1ccc([N+](=O)[O-])o1)C(=O)NCc1ccco1` [8-I17, 2-cyano-N-[(furan-2-yl)methyl]-3-(5-nitrofuran-2-yl)prop-2-enamide]: 1.08%.

Values taken from paper PMC11995724, “Antibiotic target discovery by integrated phenotypic and activity-based profiling of electrophilic fragments” (Cell chemical biology, 2025).
